In ChEMBL document CHEMBL1201862, “PubChem BioAssay data set” (2004):
The source made the active and inactive calls.

How the values were obtained:
[1] = biological target: T1, Tyrosine-protein phosphatase non-receptor type 7 (Homo sapiens, UniProt P35236); experiment: redox-active compounds inhibiting HePTP phosphatase – biochemical, fluorescence, mechanism study (AID 2068); type: functional
T1 sequence (P35236 whole entry): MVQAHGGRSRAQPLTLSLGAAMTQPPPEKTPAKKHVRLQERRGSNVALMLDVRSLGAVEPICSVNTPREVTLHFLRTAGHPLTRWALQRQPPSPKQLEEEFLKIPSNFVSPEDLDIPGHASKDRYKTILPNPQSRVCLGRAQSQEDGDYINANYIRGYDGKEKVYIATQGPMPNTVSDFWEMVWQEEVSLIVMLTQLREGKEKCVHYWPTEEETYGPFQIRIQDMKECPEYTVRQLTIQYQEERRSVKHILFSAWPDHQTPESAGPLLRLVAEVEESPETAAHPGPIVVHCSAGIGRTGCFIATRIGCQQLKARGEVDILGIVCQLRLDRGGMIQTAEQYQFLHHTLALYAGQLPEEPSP

[2] = biological target: 26S proteasome non-ATPase regulatory subunit 14 (Homo sapiens, UniProt O00487); experiment: inhibition of proteasome subunit RPN11 – biochemical, fluorescence polarization, uHTS hits, confirmation (AID 602368); type: functional
Chain of 26S proteasome non-ATPase regulatory subunit 14 (O00487 whole entry): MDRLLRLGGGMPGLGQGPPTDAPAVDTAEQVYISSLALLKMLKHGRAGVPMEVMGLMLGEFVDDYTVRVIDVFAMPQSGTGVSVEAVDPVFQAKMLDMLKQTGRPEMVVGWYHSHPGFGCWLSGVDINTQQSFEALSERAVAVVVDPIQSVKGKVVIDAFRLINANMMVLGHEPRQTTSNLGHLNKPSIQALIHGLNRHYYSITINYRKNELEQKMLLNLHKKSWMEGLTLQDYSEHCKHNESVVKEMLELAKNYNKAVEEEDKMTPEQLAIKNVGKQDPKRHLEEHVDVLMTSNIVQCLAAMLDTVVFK

[3] = biological target: Small ubiquitin-related modifier 1 (Homo sapiens, UniProt P63165); experiment: SUMO1 protein interaction blockers, potency – biochemical, fluorescence polarization, uHTS hits, dose response (AID 624382); type: functional; settings: read-out: IC50_Mean
Chain of Small ubiquitin-related modifier 1 (P63165 whole entry): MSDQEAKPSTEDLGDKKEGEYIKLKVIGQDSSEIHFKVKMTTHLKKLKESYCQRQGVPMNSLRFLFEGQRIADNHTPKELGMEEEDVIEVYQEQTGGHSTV

SUMO E1/E2 = SUMO E1/E2 (Homo sapiens, UniProt P63279+Q9UBE0+Q9UBT2); experiment: SAR analysis of SUMOylation using HTRF in an in-Vitro dose response assay. [Related pubchem assays (depositor defined):AID2006, AID2011, AID2018, AID2069, AID2658]; type: functional
Chain of SUMO E1/E2 (Q9UBE0 whole entry): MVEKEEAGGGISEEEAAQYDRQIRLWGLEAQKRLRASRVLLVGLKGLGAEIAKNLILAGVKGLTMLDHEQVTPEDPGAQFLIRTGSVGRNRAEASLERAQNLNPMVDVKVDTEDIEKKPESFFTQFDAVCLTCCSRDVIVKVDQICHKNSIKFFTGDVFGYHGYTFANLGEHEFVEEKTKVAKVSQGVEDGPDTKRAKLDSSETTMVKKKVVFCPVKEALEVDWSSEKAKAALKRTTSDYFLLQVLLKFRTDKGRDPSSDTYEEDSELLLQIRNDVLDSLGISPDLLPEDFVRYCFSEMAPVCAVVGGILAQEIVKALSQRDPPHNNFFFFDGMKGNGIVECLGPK
Chain of SUMO E1/E2 (Q9UBT2 whole entry): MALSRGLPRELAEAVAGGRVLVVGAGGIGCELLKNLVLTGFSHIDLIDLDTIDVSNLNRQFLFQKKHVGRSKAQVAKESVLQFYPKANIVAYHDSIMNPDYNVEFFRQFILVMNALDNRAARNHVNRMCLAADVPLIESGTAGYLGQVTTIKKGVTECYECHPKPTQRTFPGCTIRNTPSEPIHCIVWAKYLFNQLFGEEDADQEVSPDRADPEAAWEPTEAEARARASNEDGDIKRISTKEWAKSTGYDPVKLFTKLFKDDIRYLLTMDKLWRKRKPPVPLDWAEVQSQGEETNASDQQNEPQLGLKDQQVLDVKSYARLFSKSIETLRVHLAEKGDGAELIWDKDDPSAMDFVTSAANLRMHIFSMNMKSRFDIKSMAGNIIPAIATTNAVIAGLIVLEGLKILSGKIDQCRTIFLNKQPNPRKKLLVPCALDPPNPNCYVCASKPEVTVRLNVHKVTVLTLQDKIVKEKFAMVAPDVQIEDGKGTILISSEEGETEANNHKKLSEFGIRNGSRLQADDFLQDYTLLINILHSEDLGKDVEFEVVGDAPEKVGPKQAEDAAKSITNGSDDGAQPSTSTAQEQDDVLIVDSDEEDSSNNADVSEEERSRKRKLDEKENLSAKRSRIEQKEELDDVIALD
Chain of SUMO E1/E2 (P63279 whole entry): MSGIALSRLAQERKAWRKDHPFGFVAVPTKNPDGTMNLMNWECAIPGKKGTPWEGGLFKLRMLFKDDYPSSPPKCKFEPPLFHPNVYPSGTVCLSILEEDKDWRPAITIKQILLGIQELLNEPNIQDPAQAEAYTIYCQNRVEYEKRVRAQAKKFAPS

Insulin-degrading enzyme = biological target: T2, Insulin-degrading enzyme (Homo sapiens, UniProt P14735); experiment: cellular IDE activation of Abeta substrate cleavage – fluorescence polarization, HEK cells, dose response (AID 588439); type: functional, cell-based
T2 sequence (P14735 whole entry): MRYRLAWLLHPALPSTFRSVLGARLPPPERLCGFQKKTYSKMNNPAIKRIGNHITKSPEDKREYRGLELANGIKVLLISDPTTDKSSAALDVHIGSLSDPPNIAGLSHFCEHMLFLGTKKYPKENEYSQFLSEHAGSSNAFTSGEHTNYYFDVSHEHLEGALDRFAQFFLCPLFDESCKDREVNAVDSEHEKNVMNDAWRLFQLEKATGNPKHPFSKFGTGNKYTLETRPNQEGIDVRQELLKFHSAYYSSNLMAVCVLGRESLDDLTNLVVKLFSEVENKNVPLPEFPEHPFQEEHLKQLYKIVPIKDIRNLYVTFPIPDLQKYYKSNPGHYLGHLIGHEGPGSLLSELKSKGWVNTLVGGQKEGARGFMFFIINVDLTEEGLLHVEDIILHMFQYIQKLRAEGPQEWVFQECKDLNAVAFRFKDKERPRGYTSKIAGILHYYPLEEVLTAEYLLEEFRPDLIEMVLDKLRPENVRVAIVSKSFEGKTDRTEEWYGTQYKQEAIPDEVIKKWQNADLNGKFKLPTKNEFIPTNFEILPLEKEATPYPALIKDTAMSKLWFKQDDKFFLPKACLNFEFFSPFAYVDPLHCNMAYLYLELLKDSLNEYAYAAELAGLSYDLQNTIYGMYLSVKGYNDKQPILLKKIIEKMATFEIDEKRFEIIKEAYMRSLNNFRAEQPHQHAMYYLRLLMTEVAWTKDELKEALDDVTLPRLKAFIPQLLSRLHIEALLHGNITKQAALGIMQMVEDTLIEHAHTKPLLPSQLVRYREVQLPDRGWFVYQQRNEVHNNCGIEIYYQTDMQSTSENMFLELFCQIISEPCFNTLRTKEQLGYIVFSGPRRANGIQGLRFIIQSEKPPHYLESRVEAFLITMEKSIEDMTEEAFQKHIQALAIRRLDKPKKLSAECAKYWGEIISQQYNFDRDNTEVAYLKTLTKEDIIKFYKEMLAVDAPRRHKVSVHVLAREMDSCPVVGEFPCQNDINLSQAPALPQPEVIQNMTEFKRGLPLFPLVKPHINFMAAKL

HEK293 = experiment: optical interference in Abeta FP readout, dose response, artefact control for IDE activator project, biochemical, fluorescence polarization (AID 588442); type: functional, cell-based; settings: Homo sapiens
[4] = biological target: T3, Replicative DNA helicase DnaB (Mycobacterium tuberculosis, UniProt P9WMR3); experiment: DnaB intein splicing inhibitors, dose response, biochemical, cell-free fluorescence (AID 449749); type: functional
T3 sequence (P9WMR3 whole entry): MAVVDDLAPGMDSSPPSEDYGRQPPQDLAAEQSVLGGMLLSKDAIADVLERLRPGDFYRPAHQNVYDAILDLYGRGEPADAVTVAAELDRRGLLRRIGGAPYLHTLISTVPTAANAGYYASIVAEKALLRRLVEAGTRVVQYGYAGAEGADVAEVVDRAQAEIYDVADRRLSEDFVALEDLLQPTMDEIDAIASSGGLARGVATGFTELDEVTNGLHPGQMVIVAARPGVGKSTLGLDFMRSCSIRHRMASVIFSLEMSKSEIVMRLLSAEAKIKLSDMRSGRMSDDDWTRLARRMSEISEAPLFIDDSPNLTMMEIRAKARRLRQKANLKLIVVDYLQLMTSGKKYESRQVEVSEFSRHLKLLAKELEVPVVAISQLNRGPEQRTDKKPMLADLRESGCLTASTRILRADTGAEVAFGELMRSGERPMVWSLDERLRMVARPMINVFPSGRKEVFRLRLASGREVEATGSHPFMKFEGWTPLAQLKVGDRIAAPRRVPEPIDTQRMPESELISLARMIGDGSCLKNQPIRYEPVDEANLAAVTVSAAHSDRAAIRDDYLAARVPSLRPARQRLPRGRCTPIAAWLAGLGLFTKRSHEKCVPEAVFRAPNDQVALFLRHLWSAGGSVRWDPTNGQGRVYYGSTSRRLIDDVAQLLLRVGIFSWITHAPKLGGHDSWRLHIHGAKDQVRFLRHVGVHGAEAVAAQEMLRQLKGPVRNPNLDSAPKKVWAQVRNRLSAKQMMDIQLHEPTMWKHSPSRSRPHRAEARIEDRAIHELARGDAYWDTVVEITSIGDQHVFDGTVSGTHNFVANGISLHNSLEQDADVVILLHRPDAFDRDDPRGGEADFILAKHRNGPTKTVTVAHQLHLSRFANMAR

[5] = inhibition of ARNT PAS-B/TACC3 complex formation – biochemical, AlphaScreen, cherry-picked samples, confirmation (AID 651703); type: functional, Homo sapiens;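 note: His-tagged ARNT PAS-B domain paired with GST-TACC3 E629A dimer coactivator fragment; potency of inhibitors that break up the complex and lower AlphaScreen signal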

Compound: CCOC(=O)c1sc2nc3c(SCC(=O)O)cc(C(=O)c4ccccc4O)cn3c(=O)c2c1C
- IC50 [1]: 0.105 µM (active)
- IC50 [2]: 6.79 µM (active)
- IC50 [3]: > 66.6 µM (inactive)

Compound: C=CCn1c(NC(=O)c2ccccc2Cl)c(C#N)c2nc3ccccc3nc21
- IC50 (SUMO E1/E2): 15.7 µM (active)

Compound: O=c1oc2c(O)cccc2cc1-c1nc2ccccc2[nH]1
- EC50 (Insulin-degrading enzyme): > 54.7 µM (inactive)
- EC50 (HEK293): > 54.7 µM (inactive)

Compound: CCOC(=O)c1ccc(Nc2cc3ccccc3c(O)n2)cc1
- AC50 [4]: 11.1 µM (active)
- AC50 [5]: 84.2 µM (active)
